Test results published in patent publication US8404707B2, “Imidazo [1, 2-a] pyrrolo [3, 2-c] pyridine compounds useful as pestivirus inhibitors” (Universite d'Auvergne Clermont 1, priority 2006, dated 2013).
Converted amounts (≈) assume the structure as drawn. Read-outs that look alike come from different tables or passages of the source.

What was measured:
BVDV-1 (strain PE515) = test: Anti-BVDV assay (protection of MDBK cell monolayer from virus-induced cytopathic effect, MTS readout); format: cell-based, Bovine Viral Diarrhea virus; details: for EC50: Bovine viral diarrhea virus isolates and strains, MDBK, 120 h, BVDV-1 in MDBK cells, 5 days incubation, concentration that protects 50% of the cell monolayer from virus-induced cytopathic effect; for SI: Selectivity index (ratio of CC50 to EC50): CC50 (MDBK cells) / EC50 (BVDV)
Experimental: (§1) Madin-Darbey Bovine Kidney (MDBK) cells were maintained in Dulbecco's modified Eagle medium (DMEM) supplemented with BVDV-free 5% fetal calf serum (DMEME-FCS) at 37° C. in a humidified, 5% CO2 atmosphere. BVDV-1 (strain PE515) was used to assess the antiviral activity in MDBK cells.
Ninety-six-well cell culture plates were seeded with MDBK cells in DMEM-FCS so that cells reached 24 hr later confluency. Then medium was removed and serial 5-fold dilutions of the test compounds were added in a total volume of 100 μl, after which the virus inoculum (100 μl) was added to each well. […] Uninfected cells and cells receiving virus without compound were included in each assay plate. After 5 days, medium was removed and 90 μl of DMEM-FCS and 10 μl of MTS/PMS solution (Promega) was added to each well. Following a 2 hr incubation period at 37° C. the optical density of the wells was read at 498 nm in a microplate reader.

[1] = Determination of cytostatic effect on MDBK cells (MTS method); format: cell-based, Bovine; details: bovine, MDBK cells (exponentially growing), 3 days incubation, 50% cytostatic concentration
Experimental: as §1
(§2) The effect of the drugs on exponentially growing MDBK cells was assessed as follows. Cells were seeded at a density of 5000 cell/well in 96 well plates in MEM medium (Gibco) supplemented with 10% fetal calf serum, 2 mM L-glutamine (Life Technologies) and bicarbonate (Life Technologies). Cells, were cultured for 24 hr after which serial dilutions of the test compounds were added. Cultures were then again further incubated for 3 days after which the effect on cell growth was quantified by means of the MTS method (Promega). The concentration that results in 50% inhibition of cell growth is defined as the 50% cytostatic concentration (CC50)

MDBK cells = test: as above; format: cell-based, Bovine; details: exponentially growing MDBK cells, 3 days incubation; 50% cytostatic concentration
Experimental: as §1, §2

Row | Compound | melting point | EC50 (BVDV-1 (strain PE515); read-out: EC50) | SI: Selectivity index (ratio of CC50 to EC50) (BVDV-1 (strain PE515)) | CC50 at 3 days [1] | EC50 (BVDV-1 (strain PE515)) | CC50 (MDBK cells)
1 | CCOC(=O)c1cc2c3n(ccc-2n1)CC(CCl)=N3 | 270 to 272 °C |  |  |  |  | 
2 | CCOC(=O)n1c(-c2ccc(OC)cc2)cc2c1ccn1cc(C)nc21 | 158 to 159 °C |  |  |  |  | 
3 | COc1ccc(-c2cc3c4n(ccc-3n2)CC(C)=N4)cc1 | 168 °C |  |  |  |  | 
4 | CCCCc1cc2c3n(ccc-2n1)CC(C)=N3 | 162 °C |  |  |  |  | 
5 | CCOC(=O)c1cc2c3n(ccc-2n1)CC(c1cccc(OC)c1)=N3 | 198 to 200 °C |  |  |  |  | 
6 | CCOC(=O)c1cc2c3n(ccc-2n1)CC(C)=N3 [Compound 7b, Ethyl 2-methylimidazo[1,2-a]pyrrolo[3,2-c]pyridine-8-carboxylate] | 201 to 203 °C | 0.8 µg/mL (≈ 3.29 µM) | ±81 | 65 µg/mL (≈ 267 µM) |  | 
7 | CCOC(=O)c1cc2c3n(ccc-2n1)CC(C(F)(F)F)=N3 [Compound 7e, Ethyl 2-trifluoromethylimidazo[1,2-a]pyrrolo[3,2-c]pyridine-8-carboxylate] | 230 to 231 °C |  | ±33 | > 50 µg/mL | 1.5 µg/mL (≈ 5.05 µM) | 
8 | CCOC(=O)c1cc2c3n(ccc-2n1)CC(C(C)C)=N3 [Compound 7f, Ethyl 2-isopropylimidazo[1,2-a]pyrrolo[3,2-c]pyridine-8-carboxylate] | 207 to 209 °C | 0.6 µg/mL (≈ 2.21 µM) | ±36 | 22 µg/mL (≈ 81.1 µM) |  | 
9 | CCOC(=O)c1cc2c3n(ccc-2n1)CC(C(OCC)OCC)=N3 [Compound 7h, Ethyl 2-diethoxymethylimidazo[1,2-a]pyrrolo[3,2-c]pyridine-8-carboxylate] | 242 to 244 °C | 3 µg/mL (≈ 9.05 µM) | ±7 | 22 µg/mL (≈ 66.4 µM) |  | 
10 | CCOC(=O)c1cc2c3n(ccc-2n1)CC(Br)=N3 [Compound 7i, Ethyl 2-bromoimidazo[1,2-a]pyrrolo[3,2-c]pyridine-8-carboxylate] |  | 1.5 µg/mL (≈ 4.87 µM) | >33 | > 50 µg/mL |  | 
11 | CCOC(=O)c1cc2c(ccn3cc(CN(C)C)nc23)[nH]1 [Compound 9, Ethyl 2-N,N dimethylaminomethylimidazo[1,2-a]pyrrolo[3,2-c]pyridine-8-carboxylate] |  |  |  |  | 3 µg/mL (≈ 10.5 µM) | 
12 | CCOC(=O)c1cc2c3n(ccc-2n1)CC(CO)=N3 [Compound 11, Ethyl 2-hydroxymethylimidazo[1,2-a]pyrrolo[3,2-c]pyridine-8-carboxylate] | 227 to 229 °C | 9 µg/mL (≈ 34.7 µM) | ±10 | 87 µg/mL (≈ 336 µM) |  | 
13 | CC1=Nc2c3cc(C(=O)O)nc-3ccn2C1 [Compound 15, 2-Methylimidazo[1,2-a]pyrrolo[3,2-c]pyridine-8-carboxylic acid] |  | 0.5 µg/mL (≈ 2.32 µM) |  | > 100 µg/mL |  | >100 µg/mL
14 | CCOC(=O)n1c(-c2ccc(F)cc2)cc2c1ccn1cc(C)nc21 [Compound 26b, Ethyl 8-(4-fluorophenyl)-2-methylimidazo[1,2-a]pyrrolo[3,2-c]pyridine-7-carboxylate] | 175 °C | 1.25 µg/mL (≈ 3.71 µM) | ±6 | 7.9 µg/mL (≈ 23.4 µM) |  | 
15 | CC1=Nc2c3cc(-c4ccc(F)cc4)nc-3ccn2C1 [Compound 27b, 8-(4-fluorophenyl)-2-methylimidazo[1,2-a]pyrrolo[3,2-c]pyridine] |  | 1.27 µg/mL (≈ 4.79 µM) | ±37 | 47.5 µg/mL (≈ 179 µM) |  | 
